Measurements: paper PMC10535219, “Discovery and Potential Utility of a Novel Non-Invasive Ocular Delivery Platform” (Pharmaceutics, 2023)
Like-named read-outs stand apart in the source and are kept apart here.

Key:
[1] = Biodisposition of JV-DE1 and JV-MD2 delivered via NIODP (periorbital skin) in non-human primates; format: in vivo, cynomolgus monkeys; settings: for % Administered Dose, Retina: endogenous DHA subtracted; for Cmax / concentration at 0.5 h / concentration at 24 h / concentration at 3 h / concentration at 6 h: cynomolgus monkey, topical
Protocol: All experiments were performed at Medicilon. […] A pen brush was used to dose each formulation with three to four circular motions for even distribution. The doses of the test articles were selected based on their solubility/concentration with the maximum deliverable volume on the periorbital skin of the animals. The administered dose was calculated by the weight difference of the pen brush before and after administration. Animals were restrained from eye rubbing in restraint chairs for 2 h after dosing, with access to food and drink. A blood sample was collected from one of the study animals at pre-dosing. For every time point of 0.5, 3, 6, and 24 h post-dose, one animal was euthanized and the ocular tissues (upper eyelid, cornea, retina, and vitreous humor) of both eyes were collected. Plasma samples were collected before each euthanization.
For the convenience of tissue processing and sample extraction, only upper eyelids were collected to represent the entirety of the periorbital tissue. Ocular tissues were homogenized by adding a 9-fold volume of 50% methanol/H2O per gram of tissue. For the LC-MS/MS sample preparation, a 50 μL aliquot of plasma, aqueous humor, vitreous humor, or tissue homogenate was thoroughly mixed with a 250 μL extraction solution of CHCl3/EtOH (1:1); then, a 210 μL supernatant of the samples was transferred to a 96-well plate after centrifugation. The samples were evaporated in nitrogen gas (N2) until dried. Each sample was redissolved in 200 μL MeOH, of which 2 µL was injected for the LC-MS/MS analysis.
The LC system was the same as that described in Section 2. The MS analysis was performed using a Triple Quad 5500 with an ESI ion source, and the data acquisition and control system were Analyst 1.6.3 software from Applied Biosystems/MDS Sciex.
The LC/MS conditions for JV-DE1 are described in Supplementary Table S2. The LC conditions were as follows: ACQUITY UPLC ® BEH C18 1.7 μm, 2.1 mm × 50 mm; the mobile phase Column A, 0.1% formic acid in water; and Column B, 0.1% formic acid in acetonitrile. The flow rate was 0.6 ml/min, the column temperature was 50 °C, and the injection volume was 2 µL. The MS conditions were as follows: scan type, positive MRM; ion source, turbo spray; ionization model, ESI; nebulizer gas 1, 55 psi; gas 2, 55 psi; curtain gas, 40 psi; CAD, 10; ionspray voltage, 5500 V; and temperature, 550 °C.
The LC/MS conditions for JV-MD2 (DHA) are described in Supplementary Table S3. The LC conditions were as follows: ACQUITY UPLC® BEH C18 1.7 μm, 2.1 mm × 50 mm; the mobile phase Column A, […] NH4AC in H2O; and Column B, CAN. The flow rate was 0.5 mL/min, the column temperature was 40 °C, and the injection volume was 4 µL. The MS conditions were as follows: scan type, negative MRM; ion source, turbo spray; ionization model, ESI; nebulizer gas 1, 55 psi; gas 2, 55 psi; curtain gas, 40 psi; CAD, 9; ionspray voltage, 5500 V; and temperature, 550 °C.

COX-2 = test system: COX-2; parameters: method as in PMID 22765297, PMID 24005906; settings: COX-2 signaling cascade; cited from earlier work
IL-1β production = test system: IL-1β production; parameters: method as in PMID 29352206; settings: human THP-1 macrophage cell line; read-out: IC50 for reducing IL-1β production; cited from earlier work
[2] = parameters: method as in PMID 32434914; settings: dietary supplementation; mouse model with advanced AMD pathologies; cited from earlier work
photoreceptors = test system: photoreceptors; parameters: method as in PMID 23723389; settings: rat retinal neuronal cultures; by activating RXRs; cited from earlier work
[3] = JV-MD2, monkey, NIODP OS, 6568 μg/eye, 0.5 h
[4] = JV-MD2, monkey, NIODP OS, 6747 μg/eye, 24 h
[5] = JV-MD2, monkey, NIODP OS, 6768 μg/eye, 3 h
[6] = JV-MD2, monkey, NIODP OS, 7018 μg/eye, 6 h
[7] = JV-MD2, monkey, NIODP, within 30 min of dosing

In the case of CC/C=C\C/C=C\C/C=C\C/C=C\C/C=C\C/C=C\CCC(=O)O [JV-MD2, cis-4,7,10,13,16,19-docosahexaenoic acid], the “concentration in vitreous humor” value ([1]; JV-MD2, monkey, NIODP 6775 µg/eye, all timepoints except 24 h, LLOQ 0.5 µg/mL) is reported as “below BLQ”, the “% Administered Dose, Cornea” value [1, 3] is reported as 0.0283% and the “% Administered Dose, Eyelid/periorbital skin” value [1, 3] is reported as 0.4288%. The “% Administered Dose, Vitreous humor” value [1, 3] was 0.0000%, the “% Administered Dose, Retina” value [1, 3] was 0.0343% and the “% Administered Dose, Cornea” value [1, 4] was 0.0173%. For the same compound, the “% Administered Dose, Eyelid/periorbital skin” value [1, 4] was 0.0197%, the “% Administered Dose, Vitreous humor” value [1, 4] was 0.0236% and the “% Administered Dose, Retina” value [1, 4] was 0.0175%. The “% Administered Dose, Cornea” value [1, 5] was 0.0109%, the “% Administered Dose, Eyelid/periorbital skin” value [1, 5] was 0.3844% and the “% Administered Dose, Vitreous humor” value [1, 5] was 0.0000%. The “% Administered Dose, Retina” value [1, 5] was 0.0264%, the “% Administered Dose, Cornea” value [1, 6] was 0.0149% and the “% Administered Dose, Eyelid/periorbital skin” value [1, 6] was 0.0149%. For the same compound, the “% Administered Dose, Vitreous humor” value [1, 6] was 0.0000%, the “% Administered Dose, Retina” value [1, 6] was 0.0228% and the “maximum percentage of the administered dose, cornea” value [1, 7] was 0.0283%. For the same compound, the “maximum percentage of the administered dose, eyelid/periorbital skin” value [1, 7] was 0.4288%, the “maximum percentage of the administered dose, retina” value [1, 7] was 0.0343% and the Cmax ([1]; cornea, JV-MD2, monkey, single dose about 7 mg via NIODP, read-out: Cmax in cornea) was 66000 ng/g. It also gave a Cmax ([1]; retina, JV-MD2, NHP, about 7 mg/eye via NIODP, read-out: retinal Cmax) of ~338 µM, a Cmax ([1]; retina, JV-MD2, monkey, single dose about 7 mg (6775 µg/eye) via NIODP, endogenous level 17 µg/g, read-out: Cmax in retina) of 111000 ng/g and a concentration at 0.5 h ([1]; cynomolgus, cornea of the dosed left eye (OS), JV-MD2, monkey, NIODP OS, 6568 μg/eye, 0.5 h, endogenous BLQ, read-out: Drug in OS Tissues, Cornea) of 66000 ng/g. For the same compound, the concentration at 24 h ([1]; cynomolgus, cornea of the dosed left eye (OS), JV-MD2, monkey, NIODP OS, 6747 μg/eye, 24 h, endogenous BLQ, read-out: Drug in OS Tissues, Cornea) was 26000 ng/g, the concentration at 3 h ([1]; cynomolgus, cornea of the dosed left eye (OS), JV-MD2, monkey, NIODP OS, 6768 μg/eye, 3 h, endogenous BLQ, read-out: Drug in OS Tissues, Cornea) was 22000 ng/g and the concentration at 6 h ([1]; cynomolgus, cornea of the dosed left eye (OS), JV-MD2, monkey, NIODP OS, 7018 μg/eye, 6 h, endogenous BLQ, read-out: Drug in OS Tissues, Cornea) was 22000 ng/g. The concentration at 0.5 h ([1]; cynomolgus, plasma, JV-MD2 21.5% w/w, monkey, NIODP periorbital skin OS, 6568 μg/eye, 0.5 h, pre-dose baseline 2, read-out: Drug in plasma) was 2000 ng/mL, the concentration at 24 h ([1]; cynomolgus, plasma, JV-MD2 21.5% w/w, monkey, NIODP periorbital skin OS, 6747 μg/eye, 24 h, pre-dose baseline 2, read-out: Drug in plasma) was 1000 ng/mL and the concentration at 3 h ([1]; cynomolgus, plasma, JV-MD2 21.5% w/w, monkey, NIODP periorbital skin OS, 6768 μg/eye, 3 h, pre-dose baseline 2, read-out: Drug in plasma) was 3000 ng/mL. The concentration at 6 h ([1]; cynomolgus, plasma, JV-MD2 21.5% w/w, monkey, NIODP periorbital skin OS, 7018 μg/eye, 6 h, pre-dose baseline 2, read-out: Drug in plasma) was 2000 ng/mL, the Cmax ([1]; cynomolgus, retina, 6775 µg per eye, JV-MD2, NHP, about 7 mg/eye via NIODP, read-out: retinal Cmax) was 338 µM and the concentration at 0.5 h ([1]; cynomolgus, retina, JV-MD2, monkey, NIODP OS, 6568 μg/eye, 0.5 h, endogenous DHA 17 µg/g, read-out: Drug in OS Tissues, Retina) was 111000 ng/g. The concentration at 24 h ([1]; cynomolgus, retina, JV-MD2, monkey, NIODP OS, 6747 μg/eye, 24 h, endogenous DHA 17 µg/g, read-out: Drug in OS Tissues, Retina) was 47000 ng/g, the concentration at 3 h ([1]; cynomolgus, retina, JV-MD2, monkey, NIODP OS, 6768 μg/eye, 3 h, endogenous DHA 17 µg/g, read-out: Drug in OS Tissues, Retina) was 67000 ng/g and the concentration at 6 h ([1]; cynomolgus, retina, JV-MD2, monkey, NIODP OS, 7018 μg/eye, 6 h, endogenous DHA 17 µg/g, read-out: Drug in OS Tissues, Retina) was 79000 ng/g. The concentration at 0.5 h ([1]; cynomolgus, upper eyelid (periorbital skin) of the dosed left eye (OS), JV-MD2, monkey, NIODP OS, 6568 μg/eye, 0.5 h, endogenous BLQ, read-out: Drug in OS Tissues, Eyelid/periorbital skin) was 381000 ng/g, the concentration at 24 h ([1]; cynomolgus, upper eyelid (periorbital skin) of the dosed left eye (OS), JV-MD2, monkey, NIODP OS, 6747 μg/eye, 24 h, endogenous BLQ, read-out: Drug in OS Tissues, Eyelid/periorbital skin) was 16000 ng/g and the concentration at 3 h ([1]; cynomolgus, upper eyelid (periorbital skin) of the dosed left eye (OS), JV-MD2, monkey, NIODP OS, 6768 μg/eye, 3 h, endogenous BLQ, read-out: Drug in OS Tissues, Eyelid/periorbital skin) was 420000 ng/g. It also gave a concentration at 6 h ([1]; cynomolgus, upper eyelid (periorbital skin) of the dosed left eye (OS), JV-MD2, monkey, NIODP OS, 7018 μg/eye, 6 h, endogenous BLQ, read-out: Drug in OS Tissues, Eyelid/periorbital skin) of 11000 ng/g, a concentration at 24 h ([1]; cynomolgus, vitreous humor, 6775 µg per eye, JV-MD2, monkey, NIODP 6775 µg/eye, 24 h post-dose, read-out: concentration in vitreous humor) of 2000 ng/mL and a concentration at 0.5 h ([1]; cynomolgus, vitreous humor, JV-MD2, monkey, NIODP OS, 6568 μg/eye, 0.5 h, BLQ given a value of 0, LLOQ 0.5 µg/mL, read-out: Drug in OS Tissues, Vitreous humor) of 0 ng/g. The concentration at 24 h ([1]; cynomolgus, vitreous humor, JV-MD2, monkey, NIODP OS, 6747 μg/eye, 24 h, read-out: Drug in OS Tissues, Vitreous humor) was 2000 ng/g, the concentration at 3 h ([1]; cynomolgus, vitreous humor, JV-MD2, monkey, NIODP OS, 6768 μg/eye, 3 h, BLQ given a value of 0, LLOQ 0.5 µg/mL, read-out: Drug in OS Tissues, Vitreous humor) was 0 ng/g and the concentration at 6 h ([1]; cynomolgus, vitreous humor, JV-MD2, monkey, NIODP OS, 7018 μg/eye, 6 h, BLQ given a value of 0, LLOQ 0.5 µg/mL, read-out: Drug in OS Tissues, Vitreous humor) was 0 ng/g. For the same compound, the IC50 (COX-2) was 18 µM, the IC50 (IL-1β production) was 4.6 µM and the “effect on AMD pathologies” value [2] was “alleviated most pathologies”. For the same compound, the “protective effect on photoreceptors” value (photoreceptors) was “induced a protective effect”.
